# “Also recorded” adds a separate entry of the source. Read-outs that look alike come from different tables or passages of the source.
# Assays:
# [1] = test system: global palmitoylation in infected red blood cells; experiment: Global palmitoylation; type: cell-based, P. falciparum; conditions: after 16 hours 17-ODYA incubation
# [2] = test system: synchronized ring stage W2 parasites; experiment: 72-hour parasite growth; type: cell-based, P. falciparum; conditions: for EC50: Plasmodium falciparum
# [3] = biological target: T1, hMAGL (Homo sapiens, UniProt Q99685); experiment: hMAGL inhibition assay; type: biochemical
# T1 sequence (Q99685 1-303): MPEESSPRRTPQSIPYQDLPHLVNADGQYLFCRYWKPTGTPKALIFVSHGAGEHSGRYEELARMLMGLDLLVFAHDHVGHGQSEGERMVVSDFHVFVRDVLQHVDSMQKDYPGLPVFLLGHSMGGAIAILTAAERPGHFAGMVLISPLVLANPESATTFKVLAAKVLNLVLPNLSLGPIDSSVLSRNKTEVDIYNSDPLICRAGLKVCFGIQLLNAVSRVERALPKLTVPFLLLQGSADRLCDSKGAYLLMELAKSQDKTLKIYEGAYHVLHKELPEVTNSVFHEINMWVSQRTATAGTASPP
# [4] = test system: W2 ring stage cultures; experiment: Stage specific killing assay; type: cell-based, P. falciparum; conditions: 10 μM, ring stage W2 parasites, smears every twelve hours
# [5] = biological target: recombinant PfMAGL (Plasmodium falciparum, UniProt Q8IJ22); type: biochemical, P. falciparum
# [6] = test system: 3D7 ring-stage parasites; experiment: P. falciparum rate of kill assay; type: cell-based; conditions: compared with chloroquine, pyrimethamine, atovaquone
# [7] = test system: Human Foreskin Fibroblasts; experiment: Human cell cytotoxicity assay; type: cell-based; conditions: at concentrations up to 50 μM, 72 h, HFF
# [8] = test system: parasite food vacuole; experiment: Food vacuole visualization; type: cell-based, P. falciparum; conditions: 5 μM for 16 hrs; reduction not significant
# [9] = test system: SalA resistant Dd2-Polδ lines (PRELI domain-containing protein mutants); experiment: In vitro drug susceptibility assay, SalA selected PRELI mutant lines; type: cell-based, P. falciparum
# [10] = test system: synchronized W2 ring stage parasites; experiment: Lipidomic analysis of treated parasites; type: cell-based, P. falciparum; conditions: 900 nM, 24 hours versus DMSO (Figure 5B)
# [11] = test system: abH112 cKD and control NF54 parasites; experiment: Susceptibility of abH112 cKD and NF54 parasites +/- aTC; type: cell-based, P. falciparum; conditions: presence and absence of aTC
# [12] = test system: W2 ring stage cultures; conditions: ref Yoo et al., 2020; cited from earlier work
# [13] = test system: 3D7 ring-stage parasites; conditions: known fast, medium, slow acting inhibitors; ref Sanz et al., 2012; cited from earlier work
# [14] = 72 h, read-out: EC50 parasite growth
# Chain of recombinant PfMAGL (Q8IJ22 1-359): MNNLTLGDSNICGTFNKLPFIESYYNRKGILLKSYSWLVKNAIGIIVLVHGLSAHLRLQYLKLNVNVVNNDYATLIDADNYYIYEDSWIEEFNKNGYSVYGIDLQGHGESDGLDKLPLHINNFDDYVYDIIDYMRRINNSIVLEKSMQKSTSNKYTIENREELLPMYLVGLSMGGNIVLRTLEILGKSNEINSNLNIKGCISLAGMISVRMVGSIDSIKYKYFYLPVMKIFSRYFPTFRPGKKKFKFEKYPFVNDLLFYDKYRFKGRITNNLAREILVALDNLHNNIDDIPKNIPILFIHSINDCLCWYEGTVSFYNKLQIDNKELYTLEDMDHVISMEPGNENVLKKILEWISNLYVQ
compound,measurement,setting,value
"CCCCCCCCCCCCCCC(Br)C(=O)O (stereo not drawn) [Compound 2-BP, 2-bromopalmitate, reference compound]",changes in global palmitoylation,[1],changes in patterns of palmitoylation
C#CCCCCP(=O)(OCC)Oc1ccc(S(=O)(=O)F)cc1 (stereo not drawn) [Compound 2],EC50,[2]; [14],1600 nM
same,potency against hMAGL (in words),[3],highest potency
CCCCCCCCCCCCCCCP(=O)(OCC)Oc1c(F)cccc1F (stereo not drawn) [Compound 21],changes in global palmitoylation,[1],did not observe any changes in global palmitoylation
same,parasite killing,"[2]; at concentrations up to 20 μM, 72 hours, W2",no killing
same,blood stage where growth was arrested,[4],progressed through the blood stage lifecycle
same,potency against recombinant PfMAGL (in words),[5],picomolar inhibitors; also recorded: pM inhibitors
CCCCCCCCCCCCCCCP(=O)(OCC)Oc1cc(F)cc(F)c1 (stereo not drawn) [Compound 22],rate of kill (in words),[6],"faster than pyrimethamine, but not as fast as chloroquine"
same,impact on mammalian cell viability,[7],no impact on mammalian cell viability
same,food vacuole size,[8],small reduction in food vacuole size
same,"increase in EC50, PRELI mutant parasites compared to Dd2-Polδ parental line",[9],7–10 fold
same,changes in global palmitoylation,[1],did not observe any changes in global palmitoylation
same,changes in lipid classes,[10],downregulation of both ceramides and diacylglycerides
same,rescue of killing phenotype by palmitate and oleate supplementation,"[2]; 5 µM compound, 30 µM palmitate, oleate or both, 72 hours",did not rescue
same,"drop in potency, 1 hour pulse compared to continuous treatment",[2]; 1 hour treatment followed by washout,ten-fold drop in potency
same,EC50,[2]; [14],188 nM
same,EC50,[2]; read-out: EC50 after 1 hour treatment and washout,1330 nM
same,blood stage where growth was arrested,[4],arrested in growth at 24 hours
same,effect of abH112 knockdown on parasite susceptibility to compound,[11],did not affect parasite susceptibility
same,potency against recombinant PfMAGL (in words),[5],picomolar inhibitors; also recorded: pM inhibitors
CCCCCCCCCCC[C@@H](C[C@@H]1OC(=O)[C@H]1CCCCCC)OC(=O)[C@H](CC(C)C)NC=O [Orlistat],blood stage where progression is blocked,[12],block progression at the late schizont stage
O=C1C(O)=C([C@H]2CC[C@H](c3ccc(Cl)cc3)CC2)C(=O)c2ccccc21 [atovaquone],rate of kill class of known inhibitors,[13],slow
CCN(CC)CCCC(C)Nc1ccnc2cc(Cl)ccc12 (stereo not drawn) [chloroquine],rate of kill class of known inhibitors,[13],fast
CCc1nc(N)nc(N)c1-c1ccc(Cl)cc1 [pyrimethamine],rate of kill class of known inhibitors,[13],medium
